Results taken from ChEMBL document CHEMBL1201862, “PubChem BioAssay data set” (2004).
One block for each compound: values may come before it. The source made the active and inactive calls. Cut-off read from the data, not from the text of the source, for most assays here: active = EC50 of 10 µM or less and inactive = more.

Legend:
Type in all cases: functional
[1] = target: Peroxisome proliferator-activated receptor gamma/Nuclear receptor coactivator 3 (Homo sapiens, UniProt P37231);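 note: agonist potency for raising coactivator recruitment to the receptor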
[2] = target: Peroxisome proliferator-activated receptor gamma/Nuclear receptor coactivator 2 (Homo sapiens, UniProt P37231);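 note: agonist potency for raising coactivator recruitment to the receptor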
[3] = target: Peroxisome proliferator-activated receptor gamma/Nuclear receptor coactivator 1 (Homo sapiens, UniProt P37231);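 note: agonist potency as compounds enhance coactivator SRC-1 recruitment to PPARgamma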
HEK293 = experiment: Fluorescence-based counterscreen for potentiators or agonists of NPY-Y2: cell-based high-throughput dose response assay to identify inhibitors of cyclic nucleotide gated ion channel (CNGC) activity. In this assay, the parental HEK293 cell line transfected with a cyclic-nucleotide gated ion channel (CNGC)-based cAMP sensor is used to measure inhibition of isoproterenol-induced CNGC activity by test compound.; conditions: Homo sapiens;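 note: stimulus is 1 µM isoproterenol at EC100 plus PDE inhibitor Ro 20-1724 at 25 µM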
[4] = target: Neuropeptide Y receptor type 1 (Homo sapiens, UniProt P25929); experiment: Fluorescence-based counterscreen for agonists of NPY-Y2: cell-based high-throughput dose response assay for agonists of NPY-Y1.
[5] = target: Neuropeptide Y receptor type 2 (Homo sapiens, UniProt P49146); experiment: Fluorescence-based cell-based high-throughput dose response assay for agonists of NPY-Y2. [Related pubchem assays: 1703 (Screening assay (CNGC inhibitors).), 1359 (Screening assay (NPY-Y2 potentiators or agonists).), 1304 (Screening assay (NPY-Y1 potentiators or agonists).), 1710 (Screening assay (NPY-Y2 agonists).), 1791 (Summary AID.)]
[6] = CCR5-tropic HIV-1 fusion blockers – cell-based, CCR5-tropic Env, dose response (AID 2279)
[7] = target: T1, High affinity choline transporter 1 (Homo sapiens, UniProt Q9GZV3); experiment: human choline transporter blockers, potency – cell-based, 5-point CRC, membrane potential dye, dose response (AID 504840)
T1 sequence (Q9GZV3 whole entry): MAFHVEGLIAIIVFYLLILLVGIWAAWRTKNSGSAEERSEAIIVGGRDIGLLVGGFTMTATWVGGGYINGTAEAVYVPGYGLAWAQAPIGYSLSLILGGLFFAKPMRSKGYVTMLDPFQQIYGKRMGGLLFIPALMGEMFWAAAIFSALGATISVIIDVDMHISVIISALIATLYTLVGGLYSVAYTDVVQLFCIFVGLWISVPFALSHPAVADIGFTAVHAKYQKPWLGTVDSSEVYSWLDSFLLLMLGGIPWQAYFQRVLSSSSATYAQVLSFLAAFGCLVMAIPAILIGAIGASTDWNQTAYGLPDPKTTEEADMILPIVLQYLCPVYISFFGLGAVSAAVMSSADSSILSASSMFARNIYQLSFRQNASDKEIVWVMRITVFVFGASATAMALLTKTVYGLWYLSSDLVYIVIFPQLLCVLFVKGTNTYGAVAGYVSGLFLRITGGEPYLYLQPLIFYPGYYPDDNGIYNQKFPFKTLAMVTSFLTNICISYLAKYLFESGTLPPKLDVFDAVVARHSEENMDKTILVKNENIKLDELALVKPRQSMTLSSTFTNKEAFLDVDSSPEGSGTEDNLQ

[8] = target: T1, High affinity choline transporter 1; experiment: human choline transporter blockers, potency – cell-based, 10-point CRC, membrane potential dye, dose response (AID 588401);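 note: membrane potential dye fluorescence of choline-evoked depolarization via CHT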

Peroxisome proliferator-activated receptor gamma/Nuclear receptor coactivator 2, sequence (P37231 whole entry): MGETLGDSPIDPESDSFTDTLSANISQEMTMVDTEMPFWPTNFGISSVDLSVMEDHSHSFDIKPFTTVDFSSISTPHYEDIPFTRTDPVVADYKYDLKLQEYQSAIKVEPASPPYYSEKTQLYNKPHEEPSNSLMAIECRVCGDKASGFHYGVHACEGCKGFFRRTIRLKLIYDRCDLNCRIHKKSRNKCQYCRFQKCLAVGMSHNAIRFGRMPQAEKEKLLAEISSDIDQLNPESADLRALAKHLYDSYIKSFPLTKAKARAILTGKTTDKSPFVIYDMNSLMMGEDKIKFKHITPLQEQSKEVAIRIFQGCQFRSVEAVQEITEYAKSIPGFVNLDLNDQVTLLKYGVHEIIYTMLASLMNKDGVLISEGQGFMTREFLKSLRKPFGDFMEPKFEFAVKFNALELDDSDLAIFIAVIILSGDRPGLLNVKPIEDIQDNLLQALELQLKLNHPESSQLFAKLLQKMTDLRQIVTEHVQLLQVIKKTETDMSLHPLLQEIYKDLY
Peroxisome proliferator-activated receptor gamma/Nuclear receptor coactivator 2, sequence (Q15596 whole entry, further chain): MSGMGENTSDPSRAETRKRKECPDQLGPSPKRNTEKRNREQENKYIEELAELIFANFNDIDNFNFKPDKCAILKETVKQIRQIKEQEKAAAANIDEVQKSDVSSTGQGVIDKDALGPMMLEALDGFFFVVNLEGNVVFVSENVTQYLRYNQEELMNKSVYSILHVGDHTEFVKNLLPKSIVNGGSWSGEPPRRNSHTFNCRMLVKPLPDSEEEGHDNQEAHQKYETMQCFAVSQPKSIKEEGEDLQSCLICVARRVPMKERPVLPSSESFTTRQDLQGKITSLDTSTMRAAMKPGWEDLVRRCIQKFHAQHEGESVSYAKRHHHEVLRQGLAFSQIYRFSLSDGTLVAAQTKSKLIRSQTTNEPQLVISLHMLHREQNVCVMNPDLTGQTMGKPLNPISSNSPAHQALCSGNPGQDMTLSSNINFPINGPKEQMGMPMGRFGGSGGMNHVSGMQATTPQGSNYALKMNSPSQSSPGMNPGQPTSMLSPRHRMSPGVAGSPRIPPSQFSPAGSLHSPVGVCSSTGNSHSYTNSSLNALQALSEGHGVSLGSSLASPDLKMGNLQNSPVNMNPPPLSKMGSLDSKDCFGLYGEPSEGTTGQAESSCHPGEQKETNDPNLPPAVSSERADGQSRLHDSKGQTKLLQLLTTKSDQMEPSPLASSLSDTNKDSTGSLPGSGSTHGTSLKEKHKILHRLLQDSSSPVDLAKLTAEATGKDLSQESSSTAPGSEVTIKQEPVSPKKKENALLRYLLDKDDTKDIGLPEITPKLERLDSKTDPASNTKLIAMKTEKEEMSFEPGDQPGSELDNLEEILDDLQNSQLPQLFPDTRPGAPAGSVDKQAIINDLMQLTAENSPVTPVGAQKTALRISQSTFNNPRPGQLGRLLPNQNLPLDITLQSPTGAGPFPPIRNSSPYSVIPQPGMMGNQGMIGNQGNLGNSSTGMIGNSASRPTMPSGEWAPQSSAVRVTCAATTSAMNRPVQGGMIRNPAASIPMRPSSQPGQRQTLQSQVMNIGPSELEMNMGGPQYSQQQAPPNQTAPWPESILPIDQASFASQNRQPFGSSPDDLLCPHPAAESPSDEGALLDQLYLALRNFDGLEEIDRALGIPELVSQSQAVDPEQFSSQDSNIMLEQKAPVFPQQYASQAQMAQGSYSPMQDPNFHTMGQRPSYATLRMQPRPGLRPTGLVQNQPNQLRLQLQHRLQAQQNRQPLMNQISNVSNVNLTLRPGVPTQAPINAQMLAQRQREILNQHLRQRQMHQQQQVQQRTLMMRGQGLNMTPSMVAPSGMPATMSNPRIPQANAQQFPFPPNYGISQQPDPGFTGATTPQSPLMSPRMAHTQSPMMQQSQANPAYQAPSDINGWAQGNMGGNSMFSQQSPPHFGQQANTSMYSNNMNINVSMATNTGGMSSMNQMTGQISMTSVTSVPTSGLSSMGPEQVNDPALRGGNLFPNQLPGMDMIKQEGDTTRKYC
Peroxisome proliferator-activated receptor gamma/Nuclear receptor coactivator 1, sequence (P37231 whole entry): as the sequence (P37231 whole entry) above
Peroxisome proliferator-activated receptor gamma/Nuclear receptor coactivator 1, sequence (Q15788 whole entry, further chain): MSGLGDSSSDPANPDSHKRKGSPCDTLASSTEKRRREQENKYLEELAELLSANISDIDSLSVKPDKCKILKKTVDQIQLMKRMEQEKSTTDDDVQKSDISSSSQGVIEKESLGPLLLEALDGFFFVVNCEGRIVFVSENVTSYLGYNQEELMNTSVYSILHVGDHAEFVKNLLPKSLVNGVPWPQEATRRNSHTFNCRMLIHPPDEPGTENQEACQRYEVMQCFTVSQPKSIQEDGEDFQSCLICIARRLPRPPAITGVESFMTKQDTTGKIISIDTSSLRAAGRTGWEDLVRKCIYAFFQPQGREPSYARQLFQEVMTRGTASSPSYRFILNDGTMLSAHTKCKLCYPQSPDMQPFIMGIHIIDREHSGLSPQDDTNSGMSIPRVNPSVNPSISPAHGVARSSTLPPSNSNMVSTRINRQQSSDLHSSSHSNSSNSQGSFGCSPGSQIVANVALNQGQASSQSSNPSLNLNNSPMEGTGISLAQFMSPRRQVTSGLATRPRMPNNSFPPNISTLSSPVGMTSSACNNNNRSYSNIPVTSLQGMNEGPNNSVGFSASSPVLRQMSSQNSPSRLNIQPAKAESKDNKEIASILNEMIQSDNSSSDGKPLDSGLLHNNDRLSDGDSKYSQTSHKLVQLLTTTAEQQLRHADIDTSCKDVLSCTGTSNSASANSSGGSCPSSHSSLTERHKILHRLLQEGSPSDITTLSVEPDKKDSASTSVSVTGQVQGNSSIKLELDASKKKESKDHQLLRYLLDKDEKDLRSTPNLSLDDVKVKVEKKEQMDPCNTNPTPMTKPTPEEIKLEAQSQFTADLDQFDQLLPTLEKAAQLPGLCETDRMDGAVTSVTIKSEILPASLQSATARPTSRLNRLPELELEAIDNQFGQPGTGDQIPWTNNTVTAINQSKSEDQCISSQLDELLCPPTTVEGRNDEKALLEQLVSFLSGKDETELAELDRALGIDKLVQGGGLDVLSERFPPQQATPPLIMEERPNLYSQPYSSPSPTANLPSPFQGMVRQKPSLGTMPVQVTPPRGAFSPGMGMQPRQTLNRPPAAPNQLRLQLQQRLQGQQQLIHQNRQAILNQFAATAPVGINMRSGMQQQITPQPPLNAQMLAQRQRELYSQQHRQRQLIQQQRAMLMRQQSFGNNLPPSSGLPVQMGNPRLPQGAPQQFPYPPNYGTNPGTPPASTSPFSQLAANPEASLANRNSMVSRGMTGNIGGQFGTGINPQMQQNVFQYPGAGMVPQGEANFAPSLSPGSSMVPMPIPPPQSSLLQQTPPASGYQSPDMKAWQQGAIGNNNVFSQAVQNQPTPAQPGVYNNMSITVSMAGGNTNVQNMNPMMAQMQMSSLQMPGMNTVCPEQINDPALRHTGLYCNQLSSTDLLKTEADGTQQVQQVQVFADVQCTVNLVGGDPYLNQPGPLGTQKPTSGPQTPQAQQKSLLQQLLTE
Neuropeptide Y receptor type 2, sequence (P49146 whole entry, the tested form may be a part): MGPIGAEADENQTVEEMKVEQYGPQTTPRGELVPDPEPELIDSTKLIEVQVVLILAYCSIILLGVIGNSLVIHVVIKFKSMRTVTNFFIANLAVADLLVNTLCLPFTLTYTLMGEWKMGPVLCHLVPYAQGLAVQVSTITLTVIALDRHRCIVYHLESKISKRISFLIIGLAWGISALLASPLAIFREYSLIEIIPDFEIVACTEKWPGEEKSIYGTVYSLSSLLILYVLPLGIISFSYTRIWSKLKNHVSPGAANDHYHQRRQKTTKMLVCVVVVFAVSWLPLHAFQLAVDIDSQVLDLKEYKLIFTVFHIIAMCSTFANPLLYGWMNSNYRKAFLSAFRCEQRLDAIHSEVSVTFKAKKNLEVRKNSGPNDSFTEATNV
Neuropeptide Y receptor type 1, sequence (P25929 whole entry): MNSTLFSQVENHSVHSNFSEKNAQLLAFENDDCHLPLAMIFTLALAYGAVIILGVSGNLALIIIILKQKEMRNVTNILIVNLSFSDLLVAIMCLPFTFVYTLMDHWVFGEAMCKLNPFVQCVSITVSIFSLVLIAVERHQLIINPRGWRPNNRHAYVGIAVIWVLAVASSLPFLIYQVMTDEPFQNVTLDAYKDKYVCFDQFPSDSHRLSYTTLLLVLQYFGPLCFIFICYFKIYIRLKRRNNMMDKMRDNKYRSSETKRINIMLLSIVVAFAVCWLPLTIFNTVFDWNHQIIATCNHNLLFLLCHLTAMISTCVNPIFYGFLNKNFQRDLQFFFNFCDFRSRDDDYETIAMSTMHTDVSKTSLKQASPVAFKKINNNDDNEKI

EC50 [1]: 19.9 µM (not active)
EC50 [2]: 16 µM (not active)
EC50 [3]: 17.6 µM (not active)
Structure (SMILES): O=C(NC(=S)Nc1ccccc1)c1ccc(Br)o1

Structure (SMILES): COc1ccc(Cn2cnc3c(NS(C)(=O)=O)c(C)c(C)cc32)cc1
EC50 (HEK293): > 35.4 µM (not active)
EC50 [4]: 19.3 µM (not active)
EC50 [5]: > 35.4 µM (not active)

Structure (SMILES): CCS(=O)(=O)C1=NSC2=NC(=O)/C(=C\c3ccc(OS(=O)(=O)c4ccccc4)cc3)C(=N)N21
IC50 [6]: 36.5 µM (active)
IC50 [7]: 5.22 µM (active)
IC50 [8]: 8.91 µM (active)
